# Measurements reported in patent publication US7060405B2, “Naphthoquinone derivative and electrophotographic photoreceptor containing the same” (Samsung Electronics Co., Ltd., priority 2003, dated 2006).
# Experiment: solubility in an organic solvent
# Type: physicochemical
# Settings: compared to a conventional electron-transporting material
# Description: In addition, two properties of the naphthoquinone derivative of Formula 2 that was used in Example 1 was measured: solubility in an organic solvent and compatibility with a binder resin.
compound,measurement,value
COc1ccc(C(=O)C2=C(c3ccccc3)C(=O)c3ccccc3C2=O)cc1 [Formula 2],solubility in an organic solvent,improved
